{"source": "patent US20260265233A1", "about": "“BENZOTHIOPHENE DERIVATIVES AS RXFP1 AGONISTS” (BRISTOL-MYERS SQUIBB COMPANY, priority 2021, published 2026)", "molecular_target": "T1, human RXFP1 (Homo sapiens, UniProt Q9HBX9)", "T1 construct": "expressed in transfected cells", "T1 sequence (Q9HBX9 1-757)": "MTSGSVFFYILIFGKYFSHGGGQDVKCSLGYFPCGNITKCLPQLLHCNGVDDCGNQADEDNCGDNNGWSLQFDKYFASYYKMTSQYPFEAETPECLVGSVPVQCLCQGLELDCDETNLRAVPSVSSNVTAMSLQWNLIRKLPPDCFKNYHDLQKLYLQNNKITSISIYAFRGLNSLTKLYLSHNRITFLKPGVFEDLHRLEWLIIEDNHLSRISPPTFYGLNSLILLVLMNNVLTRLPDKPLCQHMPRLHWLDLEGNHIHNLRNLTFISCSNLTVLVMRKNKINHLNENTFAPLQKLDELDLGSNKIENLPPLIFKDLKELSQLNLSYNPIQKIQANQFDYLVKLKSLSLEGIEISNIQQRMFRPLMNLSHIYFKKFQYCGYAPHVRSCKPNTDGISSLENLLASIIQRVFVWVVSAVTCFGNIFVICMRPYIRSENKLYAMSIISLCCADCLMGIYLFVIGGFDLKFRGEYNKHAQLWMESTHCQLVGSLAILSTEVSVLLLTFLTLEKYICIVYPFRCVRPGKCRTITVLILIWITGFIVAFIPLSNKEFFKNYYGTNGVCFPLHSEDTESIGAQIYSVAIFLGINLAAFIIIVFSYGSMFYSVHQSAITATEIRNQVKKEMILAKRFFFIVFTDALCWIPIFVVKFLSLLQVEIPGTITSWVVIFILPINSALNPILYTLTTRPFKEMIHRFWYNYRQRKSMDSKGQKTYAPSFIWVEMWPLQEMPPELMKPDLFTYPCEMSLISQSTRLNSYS", "experiment": "hRXFP1 HEK293 cAMP assay (HTRF)", "assay_type": "cell-based", "details": "HEK293 cells stably expressing human RXFP1; 30 min at rt; intracellular cAMP by HTRF", "in_short": "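HEK293 cells stably expressing human RXFP1 treated 30 min at rt with compound (0.010 nM to 50 μM, 2% DMSO) in HBSS/HEPES buffer with 0.5 mM IBMX. Intracellular cAMP measured by HTRF (665/590 nm ratio) against a cAMP standard curve; potency fitted by 4-parameter logistic.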"}
{"compound": "COc1ccc(CNC(c2ccc(F)c(-c3ccc(OC)c(C(=O)Nc4c(C(=O)Nc5ccc(F)c(C(F)(F)F)c5)sc5cc(C(F)(F)F)ccc45)c3)c2)C(F)(F)F)cc1OC", "note": "(single isomer, unassigned) [Example 114, 3-(5′-(1-((3,4-dimethoxybenzyl)amino)-2,2,2-trifluoroethyl)-2′-fluoro-4-methoxy-[1,1′-biphenyl]-3-carboxamido)-N-(4-fluoro-3-(trifluoromethyl)phenyl)-6-(trifluoromethyl) benzo[b] thiophene-2-carboxamide]", "values": [{"measurement": "EC50", "value": 22.5, "unit": "nM"}]}
{"compound": "COc1ccc(CNC(c2ccc(F)c(-c3ccc(OC)c(C(=O)Nc4c(C(=O)Nc5ccc(F)c(C(F)(F)F)c5)sc5cc(C(F)(F)F)ccc45)c3)c2)C(F)(F)F)cc1OC", "note": "(single isomer, unassigned) [Example 115, 3-(5′-(1-((3,4-dimethoxybenzyl)amino)-2,2,2-trifluoroethyl)-2′-fluoro-4-methoxy-[1,1′-biphenyl]-3-carboxamido)-N-(4-fluoro-3-(trifluoromethyl)phenyl)-6-(trifluoromethyl) benzo[b] thiophene-2-carboxamide]", "values": [{"measurement": "EC50", "value": 98, "unit": "nM"}]}
{"compound": "COc1ccc(C2CCNC2)cc1C(=O)Nc1c(C(=O)Nc2ccc(F)c(C(F)(F)F)c2)sc2cc(C(F)(F)F)ccc12", "note": "(single isomer, unassigned) [Example 133, N-(4-fluoro-3-(trifluoromethyl)phenyl)-3-(2-methoxy-5-(pyrrolidin-3-yl)benzamido)-6-(trifluoromethyl) benzo[b] thiophene-2-carboxamide]", "values": [{"measurement": "EC50", "value": 876, "unit": "nM"}]}
{"compound": "COc1ccc(C2CCN(C(=O)C(C)(C)CO)C2)cc1C(=O)Nc1c(C(=O)Nc2ccc(F)c(C(F)(F)F)c2)sc2cc(C(F)(F)F)ccc12", "note": "(single isomer, unassigned) [Example 139, N-(4-fluoro-3-(trifluoromethyl)phenyl)-3-(5-(1-(3-hydroxy-2,2-dimethyl-propanoyl)pyrrolidin-3-yl)-2-methoxy-benzamido)-6-(trifluoromethyl) benzo[b] thiophene-2-carboxamide]", "values": [{"measurement": "EC50", "value": 72.6, "unit": "nM"}]}
{"compound": "COc1ccc(C2CCN(CCS(C)(=O)=O)C2)cc1C(=O)Nc1c(C(=O)Nc2ccc(F)c(C(F)(F)F)c2)sc2cc(C(F)(F)F)ccc12", "note": "(single isomer, unassigned) [Example 149, N-(4-fluoro-3-(trifluoromethyl)phenyl)-3-(2-methoxy-5-(1-(2-(methylsulfonyl)ethyl)pyrrolidin-3-yl)benzamido)-6-(trifluoromethyl) benzo[b] thiophene-2-carboxamide]", "values": [{"measurement": "EC50", "value": 1200, "unit": "nM"}]}
{"compound": "COc1ccc(C2CCN(C(=O)C(C)(C)CO)C2)cc1C(=O)Nc1c(C(=O)Nc2ccc(F)c(C(F)(F)F)c2)sc2cc(C(F)(F)F)ccc12", "note": "(single isomer, unassigned) [Example 150, N-(4-fluoro-3-(trifluoromethyl)phenyl)-3-(5-(1-(3-hydroxy-2,2-dimethyl-propanoyl)pyrrolidin-3-yl)-2-methoxy-benzamido)-6-(trifluoromethyl) benzo[b] thiophene-2-carboxamide]", "values": [{"measurement": "EC50", "value": 228, "unit": "nM"}]}
{"compound": "COc1ccc(C2CCN(CCS(C)(=O)=O)C2)cc1C(=O)Nc1c(C(=O)Nc2ccc(F)c(C(F)(F)F)c2)sc2cc(C(F)(F)F)ccc12", "note": "(single isomer, unassigned) [Example 153, N-(4-fluoro-3-(trifluoromethyl)phenyl)-3-(2-methoxy-5-(1-(2-(methylsulfonyl)ethyl)pyrrolidin-3-yl)benzamido)-6-(trifluoromethyl) benzo[b] thiophene-2-carboxamide]", "values": [{"measurement": "EC50", "value": 314, "unit": "nM"}]}
{"compound": "COc1ccc(C2CC2C(=O)NC2CCOCC2)cc1C(=O)Nc1c(C(=O)Nc2ccc(F)c(C(F)(F)F)c2)sc2cc(C(F)(F)F)ccc12", "note": "(single isomer, unassigned) [Example 157, N-[4-fluoro-3-(trifluoromethyl)phenyl]-3-(2-methoxy-5-{2-[(oxan-4-yl)carbamoyl]cyclopropyl}benzamido)-6-(trifluoromethyl)-1-benzothiophene-2-carboxamide]", "values": [{"measurement": "EC50", "value": 1040, "unit": "nM"}]}
{"compound": "COc1ccc(C2CC2C(=O)NC2CCOCC2)cc1C(=O)Nc1c(C(=O)Nc2ccc(F)c(C(F)(F)F)c2)sc2cc(C(F)(F)F)ccc12", "note": "(single isomer, unassigned) [Example 158, N-[4-fluoro-3-(trifluoromethyl)phenyl]-3-(2-methoxy-5-{2-[(oxan-4-yl)carbamoyl]cyclopropyl}benzamido)-6-(trifluoromethyl)-1-benzothiophene-2-carboxamide]", "values": [{"measurement": "EC50", "value": 29.8, "unit": "nM"}]}
{"compound": "COc1ccc(C2CC2C(C)(C)O)cc1C(=O)Nc1c(C(=O)Nc2ccc(F)c(C(F)(F)F)c2)sc2cc(C(F)(F)F)ccc12", "note": "(single isomer, unassigned) [Example 160, N-[4-fluoro-3-(trifluoromethyl)phenyl]-3-{5-[2-(2-hydroxypropan-2-yl)cyclopropyl]-2-methoxy-benzamido}-6-(trifluoromethyl)-1-benzothiophene-2-carboxamide]", "values": [{"measurement": "EC50", "value": 2300, "unit": "nM"}]}
{"compound": "COc1ccc(C2CC2C(C)(C)O)cc1C(=O)Nc1c(C(=O)Nc2ccc(F)c(C(F)(F)F)c2)sc2cc(C(F)(F)F)ccc12", "note": "(single isomer, unassigned) [Example 161, N-[4-fluoro-3-(trifluoromethyl)phenyl]-3-{5-[2-(2-hydroxypropan-2-yl)cyclopropyl]-2-methoxy-benzamido}-6-(trifluoromethyl)-1-benzothiophene-2-carboxamide]", "values": [{"measurement": "EC50", "value": 4940, "unit": "nM"}]}
{"compound": "COc1ccc(C2CC2C(=O)N2CC(S(C)(=O)=O)C2)cc1C(=O)Nc1c(C(=O)Nc2ccc(F)c(C(F)(F)F)c2)sc2cc(C(F)(F)F)ccc12", "note": "(single isomer, unassigned) [Example 164, N-[4-fluoro-3-(trifluoromethyl)phenyl]-3-{5-[2-(3-methane-sulfonylazetidine-1-carbonyl)cyclopropyl]-2-methoxy-benzamido}-6-(trifluoromethyl)-1-benzothiophene-2-carboxamide]", "values": [{"measurement": "EC50", "value": 865, "unit": "nM"}]}
{"compound": "COc1ccc(C2CC2C(=O)N2CC(S(C)(=O)=O)C2)cc1C(=O)Nc1c(C(=O)Nc2ccc(F)c(C(F)(F)F)c2)sc2cc(C(F)(F)F)ccc12", "note": "(single isomer, unassigned) [Example 168, N-[4-fluoro-3-(trifluoromethyl)phenyl]-3-{5-[2-(3-methane-sulfonylazetidine-1-carbonyl)cyclopropyl]-2-methoxy-benzamido}-6-(trifluoromethyl)-1-benzothiophene-2-carboxamide]", "values": [{"measurement": "EC50", "value": 176, "unit": "nM"}]}
{"compound": "COc1ccc(N2CCCC(C(=O)NC3COC3)C2)cc1C(=O)Nc1c(C(=O)Nc2ccc(F)c(C(F)(F)F)c2)sc2cc(C(F)(F)F)ccc12", "note": "(single isomer, unassigned) [Example 188, 1-(3-((2-((4-fluoro-3-(trifluoromethyl)phenyl)carbamoyl)-6-(trifluoromethyl)benzo[b]thiophen-3-yl)carbamoyl)-4-methoxyphenyl)-N-(oxetan-3-yl)piperidine-3-carboxamide]", "values": [{"measurement": "EC50", "value": 772, "unit": "nM"}]}
{"compound": "COc1ccc(C2CCC(NCC(=O)O)CC2)cc1C(=O)Nc1c(C(=O)Nc2ccc(F)c(C(F)(F)F)c2)sc2cc(C(F)(F)F)ccc12", "note": "(single isomer, unassigned) [Example 211, (4-(3-((2-((4-fluoro-3-(trifluoromethyl)phenyl)carbamoyl)-6-(trifluoromethyl)benzo[b]thiophen-3-yl)carbamoyl)-4-methoxyphenyl)cyclohexyl) glycine]", "values": [{"measurement": "EC50", "value": 2770, "unit": "nM"}]}
{"compound": "COc1ccc(N2CCOC(CC(C)(C)O)C2)cc1C(=O)Nc1c(C(=O)Nc2ccc(F)c(C(F)(F)F)c2)sc2cc(C(F)(F)F)ccc12", "note": "(single isomer, unassigned) [Example 227, N-(4-fluoro-3-(trifluoromethyl)phenyl)-3-(5-(2-(2-hydroxy-2-methylpropyl)morpholino)-2-methoxy-benzamido)-6-(trifluoromethyl) benzo[b] thiophene-2-carboxamide]", "values": [{"measurement": "EC50", "value": 1280, "unit": "nM"}]}
{"compound": "COc1ccc(N2CCOC(CC(C)(C)O)C2)cc1C(=O)Nc1c(C(=O)Nc2ccc(F)c(C(F)(F)F)c2)sc2cc(C(F)(F)F)ccc12", "note": "(single isomer, unassigned) [Example 228, N-(4-fluoro-3-(trifluoromethyl)phenyl)-3-(5-(2-(2-hydroxy-2-methylpropyl)morpholino)-2-methoxy-benzamido)-6-(trifluoromethyl) benzo[b] thiophene-2-carboxamide]", "values": [{"measurement": "EC50", "value": 1540, "unit": "nM"}]}
{"compound": "COc1ccc(N2CCCC(C(=O)NC3COC3)C2)cc1C(=O)Nc1c(C(=O)Nc2ccc(F)c(C(F)(F)F)c2)sc2cc(C(F)(F)F)ccc12", "note": "(single isomer, unassigned) [Example 229, 1-(3-((2-((4-fluoro-3-(trifluoromethyl)phenyl)carbamoyl)-6-(trifluoromethyl)benzo [b]thiophen-3-yl)carbamoyl)-4-methoxyphenyl)-N-(oxetan-3-yl)piperidine-3-carboxamide]", "values": [{"measurement": "EC50", "value": 2570, "unit": "nM"}]}
